Laboratory results reported in patent US6482948B1, “Thienopyrimidine compounds and salts thereof and process for the preparation of the same” (Nippon Soda Co., Ltd., priority 1999, dated 2002).

Columns and labels:
[1] = biological target: T1, PDE 3 (cGMP inhibitable cAMP PDE) (Homo sapiens, UniProt Q14432); experiment: Phosphodiesterase inhibiting activity, PDE 3; format: biochemical; conditions: isozyme from human platelets; 1 μM [3H]-cAMP or [3H]-cGMP; read-out: Inhibition of PDE Activity: IC50 PDE 3
T1 construct: from tissue; host or cells: human platelets
T1 sequence (Q14432 whole entry): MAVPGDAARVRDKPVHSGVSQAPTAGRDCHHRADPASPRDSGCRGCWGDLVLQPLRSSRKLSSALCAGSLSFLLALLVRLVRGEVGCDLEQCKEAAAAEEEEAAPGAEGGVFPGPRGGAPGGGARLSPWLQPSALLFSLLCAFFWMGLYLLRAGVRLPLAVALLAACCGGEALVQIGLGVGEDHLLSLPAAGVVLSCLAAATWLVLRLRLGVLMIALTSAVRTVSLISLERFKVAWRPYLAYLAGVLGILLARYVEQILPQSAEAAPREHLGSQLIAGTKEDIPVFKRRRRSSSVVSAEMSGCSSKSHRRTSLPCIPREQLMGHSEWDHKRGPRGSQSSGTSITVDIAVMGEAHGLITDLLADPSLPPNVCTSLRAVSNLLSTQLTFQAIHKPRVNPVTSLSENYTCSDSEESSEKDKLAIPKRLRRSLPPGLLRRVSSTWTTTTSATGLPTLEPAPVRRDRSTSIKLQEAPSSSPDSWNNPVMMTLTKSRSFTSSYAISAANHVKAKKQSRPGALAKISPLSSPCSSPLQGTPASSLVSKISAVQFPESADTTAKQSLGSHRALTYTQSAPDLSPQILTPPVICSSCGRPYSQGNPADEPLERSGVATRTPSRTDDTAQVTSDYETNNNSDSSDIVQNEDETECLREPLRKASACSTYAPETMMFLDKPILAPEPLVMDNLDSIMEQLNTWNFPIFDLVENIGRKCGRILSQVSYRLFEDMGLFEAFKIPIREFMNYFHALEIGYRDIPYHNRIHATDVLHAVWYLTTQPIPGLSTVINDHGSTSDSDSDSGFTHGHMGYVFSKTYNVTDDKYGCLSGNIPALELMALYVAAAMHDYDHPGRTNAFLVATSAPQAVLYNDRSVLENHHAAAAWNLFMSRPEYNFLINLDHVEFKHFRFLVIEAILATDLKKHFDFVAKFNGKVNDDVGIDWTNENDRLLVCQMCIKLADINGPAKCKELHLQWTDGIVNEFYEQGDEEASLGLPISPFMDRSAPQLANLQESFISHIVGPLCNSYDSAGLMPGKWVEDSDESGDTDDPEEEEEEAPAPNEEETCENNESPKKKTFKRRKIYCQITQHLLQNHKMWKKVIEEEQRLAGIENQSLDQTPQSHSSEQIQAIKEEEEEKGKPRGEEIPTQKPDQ
Experimental: (§1) Pharmacological Test Example 1: Phosphodiesterase Inhibiting Activity
(§2) Cyclic nucleotide phosphodiesterases from human platelets and from the heart and kidney of a dog were eluted by the concentration gradient method with 70 to 1000 mM of sodium acetate on DEAE-cellulose column chromatography (Whatman Co. Ltd., DE-52, φ3.2×13 cm) according to the method of Thompson and others (Thompson W. J., et al., Advances in Cyclic Nucleotide Research: 10, 69-92, 1979), and separated into isozymes. PDE 5 (cGMP specific PDE) and PDE 3 (cGMP inhibitable cAMP PDE) were separated from the platelets, PDE 1 (Ca-calmodulin activatable PDE) from the heart, and PDE 4 (cGMP non-inhibitable cAMP PDE) from the kidney. The method of Thompson, et al was partially modified to measure phosphodiesterase activities: 1 μM of [3H]-cAMP or [3H]-cGMP was decomposed with phosphodiesterase. The produced 5′-AMP or 5′-GMP was decomposed to adenosine or guanosine with a snake venom (Sigma V7000). The reaction solution was added to anion exchange resin (Bio-Rad Co. Ltd., AG1-X8). Non-adsorbed adenosine or guanosine was counted by a liquid scintillation counter. A concentration causing 50% inhibition of the enzyme activity (IC50) was calculated from concentration inhibition curves.

[2] = biological target: T2, PDE 2 (Homo sapiens, UniProt O00408); experiment: Phosphodiesterase inhibiting activity, PDE 2; format: biochemical; conditions: 1 μM [3H]-cAMP or [3H]-cGMP; source of isozyme not given; read-out: Inhibition of PDE Activity: IC50 PDE 2
T2 construct: eluted by the concentration gradient method with 70 to 1000 mM of sodium acetate on DEAE-cellulose column chromatography; from tissue
T2 sequence (O00408 whole entry): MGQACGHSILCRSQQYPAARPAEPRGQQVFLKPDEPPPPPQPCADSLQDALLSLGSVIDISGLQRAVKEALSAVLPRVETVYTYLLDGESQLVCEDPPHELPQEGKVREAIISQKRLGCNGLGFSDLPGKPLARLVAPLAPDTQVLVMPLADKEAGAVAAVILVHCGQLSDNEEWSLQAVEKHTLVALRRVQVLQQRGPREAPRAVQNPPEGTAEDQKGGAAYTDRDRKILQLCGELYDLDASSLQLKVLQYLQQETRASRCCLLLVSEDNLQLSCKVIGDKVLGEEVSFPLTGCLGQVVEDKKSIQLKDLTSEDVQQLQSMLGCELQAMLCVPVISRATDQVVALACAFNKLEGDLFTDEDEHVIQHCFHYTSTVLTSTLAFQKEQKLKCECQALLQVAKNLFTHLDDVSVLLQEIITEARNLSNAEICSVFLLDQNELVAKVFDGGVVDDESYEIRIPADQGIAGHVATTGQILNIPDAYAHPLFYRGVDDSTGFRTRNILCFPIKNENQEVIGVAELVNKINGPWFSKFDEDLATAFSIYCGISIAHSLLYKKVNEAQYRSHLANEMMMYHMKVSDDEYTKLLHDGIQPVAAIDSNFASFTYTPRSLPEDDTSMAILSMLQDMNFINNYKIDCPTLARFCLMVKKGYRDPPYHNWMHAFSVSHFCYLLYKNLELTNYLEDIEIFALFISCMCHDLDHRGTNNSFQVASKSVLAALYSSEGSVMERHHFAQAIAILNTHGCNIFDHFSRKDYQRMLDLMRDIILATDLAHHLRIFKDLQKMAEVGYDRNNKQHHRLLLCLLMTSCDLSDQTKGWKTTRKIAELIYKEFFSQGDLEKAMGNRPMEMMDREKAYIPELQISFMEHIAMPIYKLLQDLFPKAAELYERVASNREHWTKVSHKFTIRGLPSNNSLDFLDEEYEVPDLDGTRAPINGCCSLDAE
Experimental: [Worded in the source for another target; this target is reported under the same test.] as §1, §2

[3] = biological target: PDE 4 (cGMP non-inhibitable cAMP PDE); experiment: Phosphodiesterase inhibiting activity, PDE 4; format: biochemical; conditions: isozyme from dog kidney; 1 μM [3H]-cAMP or [3H]-cGMP; read-out: Inhibition of PDE Activity: IC50 PDE 4
Experimental: as §1, §2

[4] = tested on: thoracic aortas; experiment: Vasodilating activity, phenylephrine-contracted thoracic aorta ring preparations (Magnus method); set-up: species or system Sprague-Dawley male rats; conditions: rat thoracic aorta ring preparations contracted with 1 μM phenylephrine, 37° C., drug added cumulatively
Experimental: Pharmacological Test Example 2: Vasodilating Activity
A vasodilating activity was assessed according to the method of Ken-ichi Hirata and Mitsuhiro Yokoyama (Arteriosclerosis and Hyperlipemia Research Strategies, published by Shujunsha (Japan), pages 275-277, 1996): The thoracic aortas were extracted from Sprague-Dawley male rats (weighing 180 to 360 g). After unnecessary connective tissues were removed, the aortas were cut to 5mm-long pieces to make ring strip preparations, and assessed by the Magnus method (37° C.). A nutrient solution used was a Krebs-Henseleit solution aerated with 5% carbon dioxide gas and 95% oxygen gas. Specimens were equilibrated for about 60 minutes, and then contracted by adding 1 μM of phenylephrine. 1 μM of acetylcholine was added at the second phenylepherine-induced contraction in order to confirm an endothelial cell dependent relaxation response. At the third phenylepherine-induced contraction, a drug to test was added cumulatively, and the relaxation action was observed. Drugs to test were all dissolved in DMSO to use for the tests. The tested drugs were assessed by 50% relaxation rates (EC50) obtained from vasodilation rates to respective concentrations (the maximum relaxation was measured by adding 100 μM of papaverine).

[5] = biological target: T3, PDE 5 (cGMP specific PDE) (Homo sapiens, UniProt O76074); experiment: Phosphodiesterase inhibiting activity, PDE 5; format: biochemical; conditions: isozyme from human platelets; 1 μM [3H]-cAMP or [3H]-cGMP; read-out: Inhibition of PDE Activity: IC50 PDE 5
T3 construct: from tissue; host or cells: human platelets
Experimental: as §1, §2

[6] = biological target: PDE 1 (Ca-calmodulin activatable PDE); experiment: Phosphodiesterase inhibiting activity, PDE 1; format: biochemical; conditions: isozyme from dog heart; 1 μM [3H]-cAMP or [3H]-cGMP; read-out: Inhibition of PDE Activity: IC50 PDE 1
Experimental: as §1, §2

IC50 [1]: > 10 µM
IC50 [2]: > 10 µM
melting point: 145 to 147 °C
IC50 [3]: 6.4 µM
EC50 [4]: 0.0031 µM
IC50 [5]: 0.006 µM
IC50 [6]: > 10 µM
Compound: COc1ccc(CNc2nc(C(=O)Nc3cccnc3)nc3sc4c(c23)CCN(C)C4)cc1Cl [1-81]
